Test results: publication PMC5567253 (Scientific Reports, 2017)
Read-outs that look alike come from different tables or passages of the source.

Legend:
[1] = test system: MGC803; parameters: method as in PMID 24098916; details: cited from earlier work
[2] = test system: MDA-MB-231 cells; assay: Morphology of MDA-MB-231 cells after BHX; assay type: cell-based, human; details: 24 h incubation, more noticeable at high concentrations
[3] = test system: MDA-MB-231 cells; assay: cells; details: Homo sapiens, read-out: IC50 of suppression of cell viability
Experimental: After incubation, MTT solution (5 mg/ml, 20 μl per well) was added and incubated for 4 h. The culture media were then replaced with dimethyl sulfoxide (DMSO, 150 μl). […] The results are expressed as mean percentage of viable cells relative to untreated cells.

[4] = test system: MDA-MB-231 cells; assay: Detection of apoptosis (annexin V/PI flow cytometry); assay type: cell-based, human; details: 24 h
Experimental: Flow cytometry was performed using PI and FITC-labelled annexin V (BD Pharmingen, CA, USA) staining according to the manufacturer’s protocol. […] After incubation at room temperature in the dark for 15 min, 400 μl of binding buffer (1×) was added. The samples were analysed within 1 h by flow cytometry (FACSCanto II, BD, San Jose, CA).

[5] = test system: MDA-MB-231 cells; assay: cells; details: Homo sapiens, MDA-MB-231, 48 h, read-out: approximate IC50 of colony forming ability
Experimental: The culture media was then aspirated and fresh cell culture media was added to allow colony formation. The culture media was changed every third day. The colonies were fixed with ice-cold methanol for 5 min and stained with 1.0% crystal violet for 30 min. Colony numbers were counted and representative photos were taken.

[6] = test system: A549; parameters: method as in PMID 24098916; details: cited from earlier work
[7] = test system: intracellular ROS in MDA-MB-231 cells; assay: Measurement of intracellular ROS (H2DCFDA); assay type: cell-based, human; details: 24 h, maximum potency at 20 μM
Experimental: The levels of intracellular ROS were monitored using dichlorofluorescein diacetate (H2DCFDA) as previously reported. […] The culture media were replaced with 1 ml of H2DCFDA/RPMI DMEM media and incubated at 37 °C for 30 min, with a final H2DCFDA concentration of 10 μM. The levels of ROS were then detected using flow cytometry (FACSCanto II, BD, San Jose, CA).

[8] = test system: MDA-MB-231 xenografted tumours; assay: Mouse xenograft model, anti-tumour effect in vivo; parameters: species or system BALB/c nude mice
Experimental: Female BALB/c nude mice (18 ± 2 g) were purchased from Institute of Laboratory Animal Sciences, Peking Union Medical College (Beijing, China). […] The tumour length and width were measured using callipers and the tumour volume was calculated twice weekly. The body weight of mice was determined at least twice weekly during the study period.

[9] = test system: Snail protein in MDA-MB-231 cells; assay: Western blotting of Snail; assay type: cell-based, human; details: western blot
Experimental: (§1) Total cell lysates were obtained by lysing the cells in SDS lysis buffer containing a protease inhibitor (PMSF), and protein concentrations were determined using a BCA protein assay kit. The proteins were separated by SDS-PAGE and transferred to PVDF membranes. The membranes were incubated with primary antibodies against Snail, Vimentin, β-catenin, and E-cadherin (1:1000 dilution) overnight at 4 °C, rinsed with TBST, and incubated with IRDye-conjugated anti-rabbit or anti-mouse IgG secondary antibodies (1:1000, LI-COR Biosciences). A β-actin-specific monoclonal antibody (1:1000 dilution) was used as a loading control. Bands were visualized with an Odyssey LI-COR infrared imaging system (LI-COR, Lincoln, NE).

[10] = test system: E-cadherin protein in MDA-MB-231 cells; assay: Western blotting of E-cadherin; assay type: cell-based, human; details: western blot
Experimental: as §1

[11] = test system: β-catenin mRNA in MDA-MB-231 cells; assay: PCR analysis of β-catenin mRNA; assay type: cell-based, human; details: 24 h
Experimental: (§2) Total RNA from MDA-MB-231 cells was isolated using TRIzol (Life Technologies, USA). RNA samples were quantified using a NanoDrop 3300 spectrophotometer (Thermo Scientific, NanoDrop Products, Wilmington, DE, USA). Synthesis of cDNA was performed using a RevertAid First Strand cDNA Synthesis kit per manufacturer’s protocols (Thermo Scientific, USA). The reaction mixtures were heated at 95 °C for 10 min, followed by 30 cycles at 94 °C for 30 s, 58 °C for 30 s, 72 °C for 20 s, and a final extension at 72 °C for 5 min. Subsequently, PCR products were electrophoresed in a 1.5% agarose gel and scanned using a gel/fluorescence image analysis system. GAPDH was selected as a loading control to standardize the amount of cDNA from each sample.

[12] = In vivo pharmacokinetics in rat plasma (UPLC-MS/MS, NCA); parameters: species or system Sprague-Dawley (SD) rats; details: intraperitoneal; for Cmax / MRT last / Tmax / half-life / AUC(0-t): male, Sprague-Dawley, plasma, ip; for MRT last: read-out: MRT0-t
Experimental: Male Sprague-Dawley (SD) rats (250 ± 50 g body weight) were purchased from Institute of Laboratory Animal Sciences, Peking Union Medical College (Beijing, China). Rats were housed in a light-controlled room at 25 ± 2 °C and 55 ± 5% relative humidity, at the Animal Center of Tianjin Medical University Cancer Institute and Hospital (Tianjin, China). Animals received a standard diet and water ad libitum. […] At 0, 10, 20, 30, 40 min, 1, 2, 3, 4, 6, 8, 10, 12, and 24 h post injection, blood samples were collected into heparinized glass tubes by direct venipuncture. Plasma was prepared from the blood by centrifugation at 13,000 rpm for 10 min at 4 °C and stored at −80 °C until further analysis.
An ACQUITY™ ultra-performance liquid chromatography system connected to a Xevo triple quadrupole mass spectrometry system (Waters, MA, USA) equipped with an electrospray ionization (ESI) source was used in this study. Aliquots (50 μl) of plasma was vortex-mixed with methanol (400 μl) containing diazepam (internal standard, 200 ng/ml concentration) for 2 min and then centrifuged at 13,000 rpm at 4 °C for 10 min. Then, 400 μl of supernatant was transferred to a clean centrifuge tube and dried with an N2 gas stream. Samples were reconstituted with 100 μl methanol/H2O (50/50, v/v). The injection volume of the assay was 5 μl. The mobile phase (MP) was composed of MPA (acetonitrile) and MPB (5 mM ammonium formate with 0.1% formic acid in water), and the flow rate was maintained at 0.3 ml/min. […] A switching valve directed the flow eluting between 1.0–2.5 min into a mass spectrometer, and the remainder to a waste container. BHX and diazepam were ionized with ESI in the positive mode and fragmented with collision gas for analysis using multiple reaction monitoring (MRM). The ESI source settings for the analysis were as follows: 350 °C gas temperature; 650 L/h desolvation; 50 L/h cone; 2.5 kV capillary voltage. […] The data acquisition and processing were done using MassLynx Mass Spectrometry software, version 4.1 (Waters, MA, USA). The dwell time was 400 ms for all ion transitions monitored.

[13] = test system: vimentin mRNA in MDA-MB-231 cells; assay: PCR analysis of vimentin mRNA; assay type: cell-based, human; details: 24 h
Experimental: as §2

[14] = test system: MDA-MB-231 cells; assay: Transwell invasion assay; assay type: cell-based, human; details: 20 μM, 24 h, normalized for cell viability
Experimental: (§3) Cell invasion and migration were measured using Transwell and wound healing assays, respectively. For Transwell assays, 2 × 10^4 cells were suspended in serum-free media and seeded in the top chamber of Matrigel-coated invasion inserts (Corning life science, Corning, NY). BHX was then added to the top chambers. DMEM containing 10% FBS was added to the lower chamber as a chemoattractant. After 24 h incubation, the non-invading cells on the upper surface of the membrane were wiped away, and the invading cells on the lower surface of the membrane were fixed using 95% ethanol and stained with 0.1% crystal violet. Images were captured at ×200 magnification using an inverted phase contrast microscope (BX61, Olympus, Japan). In parallel, cells were treated identically in 24-well plate. These cells were harvested, stained with 0.1% crystal violet, and counted. The number of cells that had invaded was normalized for effects on cell viability. For wound healing assays, cells were seeded at 2 × 10^5 cells/well in 24-well culture plates and allowed to reach confluence. […] Images of the scratches were recorded at ×40 magnification using a phase contrast microscope (EVOS, AMG, USA) at 0 and 20 h. The areas between leading edges were measured using Image J software, after which the rates of wound healing were calculated.

[15] = test system: HT29; parameters: method as in PMID 24098916; details: cited from earlier work
[16] = test system: MDA-MB-231 cells; assay: Cell cycle analysis by flow cytometry; assay type: cell-based, human; details: 24 h, vehicle 31.52 ± 2.67%
Experimental: Cell cycle analysis was carried out as previously described. […] They were washed thrice with ice-cold phosphate-buffered saline (PBS) and fixed with 75% ethanol at −20 °C overnight. The cells were then washed, incubated with 5 μl of RNase (0.25 mg/ml) at 37 °C for 30 min, pelleted, resuspended in propidium iodide (PI, 50 μg/ml), and incubated in the dark at room temperature for 15 min. Cell cycle analysis was analysed using a flow cytometer (FACSCanto II, BD, San Jose, CA).

[17] = test system: MDA-MB-231 cells; assay: Scratch-wound (wound healing) migration assay; assay type: cell-based; details: Homo sapiens, 20 h
Experimental: as §3

[18] = test system: E-cadherin mRNA in MDA-MB-231 cells; assay: PCR analysis of E-cadherin mRNA; assay type: cell-based, human; details: 24 h
Experimental: as §2

[19] = test system: β-catenin protein in MDA-MB-231 cells; assay: Western blotting of β-catenin; assay type: cell-based, human
Experimental: as §1

[20] = test system: vimentin protein in MDA-MB-231 cells; assay: Western blotting of vimentin; assay type: cell-based, human; details: western blot
Experimental: as §1

[21] = test system: Snail expression in MDA-MB-231 cells; assay: PCR analysis of Snail expression; assay type: cell-based, human; details: 24 h
Experimental: as §2

SMILES: O=C(NCc1ccc(O)cc1)C1C(c2ccccc2)C(c2ccccc2)=NN1c1ccccc1 (centres unmarked) [BHX]
- cytotoxic effects [1]: exhibits cytotoxic effects
- morphological changes [2]: cell shrinkage and fragmentation
- IC50 ([3]; MDA-MB-231, 24 h): 28.1 µM
- IC50 ([3]; MDA-MB-231, 72 h): 13.8 µM
- early apoptotic cells vs vehicle [4]: increased the percentage of early apoptotic cells
- IC50 [5]: ~20 µM
- cytotoxic effects [6]: exhibits cytotoxic effects
- ROS generation [7]: significantly increased in a dose-dependent manner
- average tumour volume ([8]; 100 mg/kg for 21 days, vehicle 1179 ± 128 mm^3): 754 ± 96 mm^3
- tumour size compared to control group ([8]; 100, 200 mg/kg, daily intraperitoneal, 21 days, p < 0.01): significant decrease in tumour size
- body weight of treated mice ([8]; 21 days treatment, p > 0.05): no significant loss of body weight
- bioluminescent intensity of tumours ([8]; 21 days, dose not stated, control 8.90 ± 0.74 × 10^7): 6.13 ± 0.52 × 10^7 p/sec/cm^2/sr
- Snail protein expression [9]: down-regulating Snail and vimentin expression in a dose-dependent manner
- E-cadherin protein level [10]: up-regulating the protein and mRNA levels of E-cadherin
- decrease of β-catenin mRNA levels ([11]; 5 μM): 4.61%
- decrease of β-catenin mRNA levels ([11]; 10 μM): 25.73%
- decrease of β-catenin mRNA levels ([11]; 20 μM): 33.19%
- CL ([12]; 50 μg/kg): 0.467 ± 0.1 mL/min/kg
- Vd ([12]; 50 μg/kg): 0.192 ± 0.047 L/kg
- t1/2 ([12]; 50 μg/kg): 4.82 ± 0.93 h
- CL ([12]; 100 μg/kg): 0.717 ± 0.12 mL/min/kg
- Vd ([12]; 100 μg/kg): 0.253 ± 0.062 L/kg
- Cmax ([12]; 50 ug/kg): 325 ± 55.1 ng/mL
- MRT last ([12]; 50 ug/kg, 50 μg/kg): 6.8 ± 1.25 h
- Tmax ([12]; 50 ug/kg, 50 μg/kg, read-out: Tmax): 5.37 ± 1.16 h
- half-life ([12]; 50 ug/kg, 50 μg/kg, read-out: elimination half-life in plasma (converted)): 4.82 ± 0.93 h
- AUC(0-t) ([12]; 50 ug/kg, first AUC0-t line): 1770 ± 325 ng·h/mL
- AUC(0-t) ([12]; 50 ug/kg, second AUC0-t line): 1820 ± 287 ng·h/mL
- Cmax ([12]; 100 ug/kg): 405 ± 87.5 ng/mL
- MRT last ([12]; 100 ug/kg, 100 μg/kg): 6.36 ± 1.32 h
- Tmax ([12]; 100 ug/kg, 100 μg/kg, read-out: Tmax): 5.62 ± 1.38 h
- half-life ([12]; 100 ug/kg, 100 μg/kg, read-out: t1/2 (converted)): 4.11 ± 0.81 h
- AUC(0-t) ([12]; 100 ug/kg, first AUC0-t line): 2300 ± 412 ng·h/mL
- AUC(0-t) ([12]; 100 ug/kg, second AUC0-t line): 2350 ± 303 ng·h/mL
- Tmax ([12]; Fig. 7c, read-out: time to peak plasma level post administration): ~6 h
- reduction of vimentin mRNA levels ([13]; 5 μM): 4.89%
- reduction of vimentin mRNA levels ([13]; 10 μM): 26.27%
- reduction of vimentin mRNA levels ([13]; 20 μM): 40.08%
- reduction of invasive potential [14]: 48.38%
- cytotoxic effects [15]: exhibits cytotoxic effects
- percentage of cells in the G0/G1 phase ([16]; 10 μM): 54.49 ± 1.93%
- percentage of cells in the G0/G1 phase ([16]; 20 μM): 61.50 ± 2.85%
- inhibition at 5 µM ([17]; 5 μM): 34.4 ± 1.06%
- inhibition at 10 µM ([17]; 10 μM): 71 ± 1.65%
- inhibition at 20 µM ([17]; 20 μM): 90.32 ± 0.68%
- increase of E-cadherin mRNA levels compared to control ([18]; 5 μM): 1.39 fold
- increase of E-cadherin mRNA levels compared to control ([18]; 10 μM): 1.65 fold
- increase of E-cadherin mRNA levels compared to control ([18]; 20 μM): 2.06 fold
- β-catenin expression by western blotting [19]: suppressed β-catenin expression in a concentration-dependent manner
- vimentin protein expression [20]: down-regulating Snail and vimentin expression in a dose-dependent manner
- reduction of Snail expression ([21]; 5 μM): 7.03%
- reduction of Snail expression ([21]; 10 μM): 15.88%
- reduction of Snail expression ([21]; 20 μM): 27.14%
